One assay concerns HUVECs. Description: Capillary-like tube formation assay (tubulogenesis). In kind it is cell-based, human. Conditions: Homo sapiens, HUVEC, read-out: IC50 value. The protocol: FIG. 2 represents effect of Compound 1 on capillary tube formation of HUVECs. Endothelial cells in Matrigel were incubated with ECM basal medium in the presence of compound 1 at the indicated concentrations for 6 h. Cell viability was assessed by Calcein-AM dye added few min. before the completion of 6 h. then photographs at 10×magnification were taken using an inverted microscope. The tubule length of HUVECs was quantified by Leica QWin software. Tubule network formation is expressed as a percentage of that vehicle (0.1% DMSO) treated cells (control).
FIG. 9 represents effect of racemic mixture (chiral isomer 1-1 and chiral isomer 2-1) of Compound 1 on capillary tube formation of HUVECs. Endothelial cells seeded in matrigel were incubated at the indicated concentrations of compound 1 racemic mixtures (1-1 and 2-1) with ECM basal medium for 6 h. Calcein-AM treatment was added to the ECs few minutes before completion of 6 h and pictures were captured using an inverted microscope at 10×magnification. The tubular structures of HUVECs were measured using Leica QWin software and tubulogenesis was expressed as a % of that vehicle (0.1% DMSO) treated cells (control) well.
HUVEC cells were incubated with or without sunitinib (20 nM) for 6 h at indicated concentrations of chiral isomers of Compound 1 (1-1 and 2-1). Photographs were taken using an inverted microscope at 10×magnification after Calcein-AM treatment to the ECs few minutes before completion of 6 h. The tubule length of HUVECs was quantified by Leica QWin software represented as a % of that vehicle (0.1% DMSO) treated cells (control) well.
To examine the effect of Compound 1 on angiogenesis, capillary tube formation assay was performed on regular or reduced growth factor Matrigel, taking VEGF (50 ng/mL) treated cells as a positive control and sunitinib (50 nM) as a negative control (FIG. 2). HUVECs seeded onto the matrigel with compound 1 at different concentrations of (10 μM, 5 μM, 1 μM, 800 nM, 500 nM, 250 nM, 125 nM, 75 nM, 50 nM, 25 nM and 10 nM) were incubated for six hours.
HUVECs (Human Umbilical Vein Endothelial Cells) were seeded onto the pre-coated matrigel (CORNING; 354230) in 96 wells plate at the rate of 11000 cells/well in incomplete ECM basal medium. Control group received vehicle, VEGF at 50 ng/mL as a positive and sunitinib at 50 nM as a negative control were used. Compound 1 at different dose concentrations (10 μM, 5 μM, 1 μM, 800 nM, 500 nM, 250 nM, 100 nM, 75 nM, 50 nM and 25 nM) were employed on seeded HUVECs in incomplete medium. Post 6 h of incubation Calcein-AM (Invitrogen) was added to all the respective groups and then the tubule pattern was observed and photographs were taken using an inverted fluorescent microscope (DM 6000, Leica Microsystems, USA). Relative tubule lengths were measured using Leica Q-Win software version 3.5.1. (Leica Microsystems, Switzerland).
For the compound `CCOP(=O)(OCC)C1N=C1CCc1ccc(OC)cc1` (stereo not shown) [Compound 49, Diethyl (3-(4-methoxyphenethyl)-2H-azirin-2-yl)phosphonate], the IC50 turned out to be 250 nM. The same measure, in the same setting: with `COc1ccc(CCC2=NC2C#N)cc1` (stereo not shown) [Compound 48, 3-(4-Methoxyphenethyl)-2H-azirine-2-carbonitrile] the figure was 250 nM.

Staying with this assay, now noted: Homo sapiens, HUVEC; endothelial tubule network assay, anti-angiogenic activity; read-out: IC50 value.
On to `CCOC(=O)C1N=C1CCc1ccc2c(c1)OCO2` (stereo not shown) [Compound 41, Ethyl 3-(2-(benzo[d][1,3]dioxol-5-yl)ethyl)-2H-azirine-2-carboxylate], for which the IC50 is 1000 nM. Still for that read-out and setting: with `CCOC(=O)C1N=C1CCCc1ccc2c(c1)OCO2` (stereo not shown) [Compound 43, Ethyl 3-(3-(benzo[d][1,3]dioxol-5-yl)propyl)-2H-azirine-2-carboxylate] the figure was 250 nM; with `COC(=O)C1N=C1CCc1ccc(OC)cc1` (stereo not shown) [Compound 14, Methyl 3-(4-methoxyphenethyl)-2H-azirine-2-carboxylate], 750 nM. On to `CCOC(=O)C1N=C1CCc1ccc(Br)cc1` (stereo not shown) [Compound 15, Ethyl 3-(4-bromophenethyl)-2H-azirine-2-carboxylate], for which the IC50 stood at 800 nM. Still for that read-out and setting: the figure for `CCOC(=O)C1N=C1CCc1ccc(I)cc1` (stereo not shown) [Compound 16, Ethyl 3-(4-iodophenethyl)-2H-azirine-2-carboxylate] is 800 nM; for `COc1ccc(CCC2=NC2C(=O)OC(C)(C)C)cc1` (stereo not shown) [Compound 17, tert-Butyl 3-(4-methoxyphenethyl)-2H-azirine-2-carboxylate] it is 400 nM; for `CCOC(=O)C1N=C1CC/C=C(\C)CCC=C(C)C` (stereo not shown) [Compound 5, Ethyl (E)-3-(4,8-dimethylnona-3,7-dien-1-yl)-2H-azirine-2-carboxylate] it is 350 nM.

Regarding `C=CCOC(=O)C1N=C1CCc1ccc(OC)cc1` (stereo not shown) [Compound 26, Allyl 3-(4-methoxyphenethyl)-2H-azirine-2-carboxylate], the IC50 came to 500 nM.

In the case of `C=CCCCC1=NC1C(=O)OCC` (stereo not shown) [Compound 2, Ethyl 3-(pent-4-en-1-yl)-2H-azirine-2-carboxylate], the IC50 was 250 nM. Still for that read-out and setting: the figure for `CCOC(=O)C1N=C1CCc1cc(OC)c(OC)c(OC)c1` (stereo not shown) [Compound 12, Ethyl 3-(3,4,5-trimethoxyphenethyl)-2H-azirine-2-carboxylate] is 200 nM; for `CCOC(=O)C1N=C1CCCc1ccc2oc3ccccc3c2c1` (stereo not shown) [Compound 44, Ethyl 3-(3-(dibenzo[b,d]furan-2-yl)propyl)-2H-azirine-2-carboxylate] it is 250 nM; for `COc1ccc(CCC2=NC2C(=O)OC(C)C)cc1` (stereo not shown) [Compound 20, Isopropyl 3-(4-methoxyphenethyl)-2H-azirine-2-carboxylate] it is 750 nM. Same read-out and setting: with `CCOC(=O)C1N=C1CCc1ccc(C#N)cc1` (stereo not shown) [Compound 31, Ethyl 3-(4-cyanophenethyl)-2H-azirine-2-carboxylate] the figure was 250 nM; with `CCC(C)OC(=O)C1N=C1CCc1ccc(OC)cc1` (stereo not shown) [Compound 22, sec-Butyl 3-(4-methoxyphenethyl)-2H-azirine-2-carboxylate], 600 nM; with `CCOC(=O)C1N=C1CCc1ccccc1` (stereo not shown) [Compound 6, Ethyl 3-phenethyl-2H-azirine-2-carboxylate], 5000 nM. On the same count and under the same terms, with `CCOC(=O)C1N=C1CC/C=C/c1ccccc1` (stereo not shown) [Compound 11, Ethyl (E)-3-(4-phenylbut-3-en-1-yl)-2H-azirine-2-carboxylate] the figure was 450 nM; with `CCOC(=O)C1N=C1CCC1CCCO1` (stereo not shown) [Compound 30, Ethyl 3-(2-(tetrahydrofuran-2-yl)ethyl)-2H-azirine-2-carboxylate], 250 nM; with `CCCCCCCCOC(=O)C1N=C1CCc1ccc(OC)cc1` (stereo not shown) [Compound 29, Octyl 3-(4-methoxyphenethyl)-2H-azirine-2-carboxylate], 250 nM. As for `CCCCCOC(=O)C1N=C1CCc1ccc(OC)cc1` (stereo not shown) [Compound 23, Pentyl 3-(4-methoxyphenethyl)-2H-azirine-2-carboxylate], the IC50 worked out at 600 nM. On the same count and under the same terms, with `CCOC(=O)C1N=C1CCc1ccc(OC2CCOC2)cc1` (stereo not shown) [Compound 50, Ethyl 3-(4-((tetrahydrofuran-3-yl)oxy)phenethyl)-2H-azirine-2-carboxylate] the figure was 250 nM; with `CCOC(=O)C1(C(=O)OCC)N=C1CCc1ccc(OC)cc1` [Compound 35, Diethyl 3-(4-methoxyphenethyl)-2H-azirine-2,2-dicarboxylate], 250 nM. Same read-out and setting: the figure for `CCOC(=O)C1N=C1CCCc1ccc2c(c1)CCO2` (stereo not shown) [Compound 37, Ethyl-3-(3-(2,3-dihydrobenzofuran-5-yl)propyl)-2H-azirine-2-carboxylate] is 50 nM; for `CCOC(=O)C1N=C1/C=C/c1ccc(OC)cc1` (stereo not shown) [Compound 13, Ethyl (E)-3-(4-methoxystyryl)-2H-azirine-2-carboxylate] it is 100 nM; for `CCOC(=O)C1N=C1CCc1c2ccccc2cc2ccccc12` (stereo not shown) [Compound 33, Ethyl 3-(2-(anthracen-9-yl)ethyl)-2H-azirine-2-carboxylate] it is 50 nM.

With `CCOC(=O)C1N=C1CCc1ccc2c(c1)CCO2` (stereo not shown) [Compound 39, Ethyl 3-(2-(2,3-dihydrobenzofuran-5-yl)ethyl)-2H-azirine-2-carboxylate], the IC50 is 2500 nM. As for `CCCOC(=O)C1N=C1CCc1ccc(OC)cc1` (stereo not shown) [Compound 19, Propyl 3-(4-methoxyphenethyl)-2H-azirine-2-carboxylate], the IC50 amounted to 800 nM. On to `COCCOC(=O)C1N=C1CCc1ccc(OC)cc1` (stereo not shown) [Compound 25, 2-Methoxyethyl 3-(4-methoxyphenethyl)-2H-azirine-2-carboxylate], for which the IC50 was determined as 700 nM.

Take `COc1ccc(CCC2=NC2C(=O)OCC(C)C)cc1` (stereo not shown) [Compound 21, Isobutyl 3-(4-methoxyphenethyl)-2H-azirine-2-carboxylate]: the IC50 is 750 nM.

For the compound `COc1ccc(CCC2=NC2C(=O)OCCC(C)C)cc1` (stereo not shown) [Compound 24, Isopentyl 3-(4-methoxyphenethyl)-2H-azirine-2-carboxylate], the IC50 came out at 700 nM. Still for that read-out and setting: with `CCOC(=O)C1N=C1CCc1ccc(OC(F)(F)F)cc1` (stereo not shown) [Compound 28, Ethyl 3-(4-(trifluoromethoxy)phenethyl)-2H-azirine-2-carboxylate] the figure was 50 nM. Still for that read-out and setting: the figure for `CCOC(=O)C1N=C1CCCc1ccc2c(c1)CCCO2` (stereo not shown) [Compound 45, Ethyl 3-(3-(chroman-6-yl)propyl)-2H-azirine-2-carboxylate] is 100 nM; for `CCOC(=O)C1N=C1CCc1ccc(C)cc1` (stereo not shown) [Compound 7, Ethyl 3-(4-methylphenethyl)-2H-azirine-2-carboxylate] it is 4000 nM; for `CCCCOc1ccc(CCC2=NC2C(=O)OCC)cc1` (stereo not shown) [Compound 32, Ethyl 3-(4-butoxyphenethyl)-2H-azirine-2-carboxylate] it is 50 nM. The same measure, in the same setting: with `CCOC(=O)C1N=C1CCc1ccc(F)cc1` (stereo not shown) [Compound 10, Ethyl 3-(4-fluorophenethyl)-2H-azirine-2-carboxylate] the figure was 600 nM; with `CCOC(=O)C1N=C1CCc1cn(C(=O)OC(C)(C)C)c2ccccc12` (stereo not shown) [Compound 38, tert-Butyl-3-(2-(2-(ethoxycarbonyl)-2H-azirin-3-yl)ethyl)-1H-indole-1-carboxylate], 75 nM; with `C=Cc1ccc(CCC2=NC2C(=O)OCC)cc1` (stereo not shown) [Compound 36, Ethyl 3-(4-vinylphenethyl)-2H-azirine-2-carboxylate], 250 nM.

Staying with this assay, now noted: endothelial tubule network assay; result in words.
On to `CCOC(=O)C1N=C1CCC=C(C)C` (stereo not shown) [Compound 4, Ethyl 3-(4-methylpent-3-en-1-yl)-2H-azirine-2-carboxylate], for which the IC50 value entry is “Not Active”.

Staying with this assay, now noted: remark on IC50 versus sunitinib.
Take `CCOC(=O)C1N=C1CCCc1ccc2c(c1)CCO2` (stereo not shown) [Compound 37, Ethyl-3-(3-(2,3-dihydrobenzofuran-5-yl)propyl)-2H-azirine-2-carboxylate]: the remarks entry was “comparable to sunitinib”.

Regarding `CCOC(=O)C1N=C1/C=C/c1ccc(OC)cc1` (stereo not shown) [Compound 13, Ethyl (E)-3-(4-methoxystyryl)-2H-azirine-2-carboxylate], the remarks entry is reported as “comparable to sunitinib”. Regarding `CCOC(=O)C1N=C1CCc1c2ccccc2cc2ccccc12` (stereo not shown) [Compound 33, Ethyl 3-(2-(anthracen-9-yl)ethyl)-2H-azirine-2-carboxylate], the remarks entry is reported as “comparable to sunitinib”.

As to `CCOC(=O)C1N=C1CCc1ccc(OC(F)(F)F)cc1` (stereo not shown) [Compound 28, Ethyl 3-(4-(trifluoromethoxy)phenethyl)-2H-azirine-2-carboxylate], the remarks entry is listed as “comparable to sunitinib”. On the same count and under the same terms, the entry for `CCOC(=O)C1N=C1CCCc1ccc2c(c1)CCCO2` (stereo not shown) [Compound 45, Ethyl 3-(3-(chroman-6-yl)propyl)-2H-azirine-2-carboxylate] is “comparable to sunitinib”; for `CCCCOc1ccc(CCC2=NC2C(=O)OCC)cc1` (stereo not shown) [Compound 32, Ethyl 3-(4-butoxyphenethyl)-2H-azirine-2-carboxylate] it is “comparable to sunitinib”; for `CCOC(=O)C1N=C1CCc1cn(C(=O)OC(C)(C)C)c2ccccc12` (stereo not shown) [Compound 38, tert-Butyl-3-(2-(2-(ethoxycarbonyl)-2H-azirin-3-yl)ethyl)-1H-indole-1-carboxylate] it is “comparable to sunitinib”.

(Values after US20230234920A1, “Azirine Containing Compounds as Anti-Angiogenesis Agents and a Process for the Preparation Thereof” (COUNCIL OF SCIENTIFIC & INDUSTRIAL RESEARCH, priority 2020, published 2023).)
